Our source for the IC50 values is patent US11649255B2, “Indazoles as hematopoietic progenitor kinase 1 (HPK1) inhibitors and methods using same” (1st Biotherapeutics, Inc., priority 2020, dated 2023).

recombinant human HPK1, sequence (Q92918 whole entry): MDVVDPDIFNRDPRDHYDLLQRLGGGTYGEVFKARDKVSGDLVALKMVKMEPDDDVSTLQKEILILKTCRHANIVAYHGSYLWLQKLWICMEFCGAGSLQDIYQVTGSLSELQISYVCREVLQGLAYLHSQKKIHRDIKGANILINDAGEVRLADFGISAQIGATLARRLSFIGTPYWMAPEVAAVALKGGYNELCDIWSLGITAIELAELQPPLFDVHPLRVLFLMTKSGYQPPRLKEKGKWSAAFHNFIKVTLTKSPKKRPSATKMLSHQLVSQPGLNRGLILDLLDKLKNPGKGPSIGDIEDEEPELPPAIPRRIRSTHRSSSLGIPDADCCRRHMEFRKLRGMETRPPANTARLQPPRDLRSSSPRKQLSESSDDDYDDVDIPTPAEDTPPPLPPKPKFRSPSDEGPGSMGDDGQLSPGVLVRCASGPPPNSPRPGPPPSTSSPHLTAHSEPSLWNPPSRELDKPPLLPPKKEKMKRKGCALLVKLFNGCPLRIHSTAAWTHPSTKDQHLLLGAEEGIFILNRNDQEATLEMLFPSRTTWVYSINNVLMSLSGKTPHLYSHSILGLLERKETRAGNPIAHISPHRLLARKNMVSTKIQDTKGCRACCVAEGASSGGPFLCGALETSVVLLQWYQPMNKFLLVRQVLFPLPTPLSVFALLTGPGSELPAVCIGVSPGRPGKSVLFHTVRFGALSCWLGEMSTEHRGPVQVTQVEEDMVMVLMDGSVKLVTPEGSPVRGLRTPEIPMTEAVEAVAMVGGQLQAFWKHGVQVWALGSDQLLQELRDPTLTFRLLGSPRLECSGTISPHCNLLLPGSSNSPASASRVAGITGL

The assay concerns the target recombinant human HPK1 (Homo sapiens (Human), UniProt Q92918). Put plainly: HPK1 kinase assay (ADP-Glo). The class given is biochemical. The conditions noted are these: 25 μM ATP, MBP substrate. The method, boiled down:
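Activity was read as ADP formed, detected by ADP-Glo luminescence after the reaction of 5 ng recombinant human HPK1 with MBP and ATP (stocks 0.5 μg/μl and 25 μM) for 40 min at 30 °C. Buffer was Tris pH 7.5 with MgCl2, BSA and DTT, with compound in 0.5% DMSO. IC50 came from inhibition curves.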
In general terms: In ADP-Glo the light output rises with the ADP produced.
For orientation: IC50 means the concentration at which inhibition is half-maximal. As to `C=Cc1c(F)cc2[nH]ncc2c1-c1ccc2nc(NC(=O)C3CC3)cn2c1` [Example 235, N-(6-(6-fluoro-5-vinyl-1H-indazol-4-yl)imidazo[1,2-a]pyridin-2-yl)cyclopropanecarboxamide], the IC50 is < 100 nM. The value for `CSc1ccc(-c2ccc3nc(NC(=O)[C@@H]4C[C@@H]4F)sc3c2)c2cn[nH]c12` [Example 142, (1S,2S)-2-fluoro-N-(6-(7-(methylthio)-1H-indazol-4-yl)benzo[d]thiazol-2-yl)cyclopropane-1-carboxamide] was > 1000 nM; that for `O=C(Nc1cn2cc(-c3c(Cl)ccc4[nH]ncc34)ccc2n1)C1CC1` [Example 223, N-(6-(5-chloro-1H-indazol-4-yl)imidazo[1,2-a]pyridin-2-yl)cyclopropanecarboxamide] was < 100 nM. The value for `Cc1c(F)c(S(C)(=O)=O)c2[nH]ncc2c1-c1ccc2nc(NC(=O)[C@@H]3C[C@@H]3F)cn2c1` [Example 302, (1S,2S)-2-fluoro-N-(6-(6-fluoro-5-methyl-7-(methylsulfonyl)-1H-indazol-4-yl)imidazo[1,2-a]pyridin-2-yl)cyclopropane-1-carboxamide] was 101 to 500 nM; that for `O=C(Nc1cn2cc(-c3c(Cl)c(F)c(N4CCOCC4)c4[nH]ncc34)ccc2n1)[C@@H]1C[C@@H]1F` [Example 279, (1S,2S)-N-(6-(5-chloro-6-fluoro-7-morpholino-1H-indazol-4-yl)imidazo[1,2-a]pyridin-2-yl)-2-fluorocyclopropane-1-carboxamide] was < 100 nM; that for `COc1c(F)c(Cl)c(-c2ccc3nc(NC(=O)[C@@H]4C[C@@H]4F)sc3c2)c2cn[nH]c12` [Example 80, (1S,2S)-N-(6-(5-chloro-6-fluoro-7-methoxy-1H-indazol-4-yl)benzo[d]thiazol-2-yl)-2-fluorocyclopropane-1-carboxamide] was < 100 nM. Under `NC1CCCN(c2c(F)c(Cl)c(-c3ccc4nc(NC(=O)[C@@H]5C[C@@H]5F)sc4c3)c3cn[nH]c23)C1` (stereo partly drawn) [Example 84, (1S,2S)-N-(6-(7-(3-aminopiperidin-1-yl)-5-chloro-6-fluoro-1H-indazol-4-yl)benzo[d]thiazol-2-yl)-2-fluorocyclopropane-1-carboxamide] stands < 100 nM. In the case of `CCc1c(F)c(N(C)C)c2[nH]ncc2c1-c1ccn2nc(NC(=O)[C@@H]3C[C@@H]3F)cc2c1` [Example 519, (1S,2S)-N-(5-(7-(dimethylamino)-5-ethyl-6-fluoro-1H-indazol-4-yl)pyrazolo[1,5-a]pyridin-2-yl)-2-fluorocyclopropane-1-carboxamide], the 50% inhibitory concentration (IC50) was < 100 nM. The value for `O=C(Nc1cn2cc(-c3c(Cl)c(F)c(NCC4CC4)c4[nH]ncc34)ccc2n1)[C@@H]1C[C@@H]1F` [Example 421, (1S,2S)-N-(6-(5-chloro-7-((cyclopropylmethyl)amino)-6-fluoro-1H-indazol-4-yl)imidazo[1,2-a]pyridin-2-yl)-2-fluorocyclopropane-1-carboxamide] was < 100 nM. As to `COc1cc(C)c(-c2ccn3nc(NC(=O)[C@@H]4C[C@@H]4F)cc3c2)c2cn[nH]c12` [Example 506, (1S,2S)-2-fluoro-N-(5-(7-methoxy-5-methyl-1H-indazol-4-yl)pyrazolo[1,5-a]pyridin-2-yl)cyclopropane-1-carboxamide], the IC50 was < 100 nM. The value for `CN(C)c1ccc(-c2ccc3nc(NC(=O)[C@@H]4C[C@@H]4F)cn3c2)c2cn[nH]c12` [Example 352, (1S,2S)-N-(6-(7-(dimethylamino)-1H-indazol-4-yl)imidazo[1,2-a]pyridin-2-yl)-2-fluorocyclopropane-1-carboxamide] was 101 to 500 nM; that for `C[S+]([O-])c1c(F)c(Cl)c(-c2ccc3nc(NC(=O)[C@@H]4C[C@@H]4F)cn3c2)c2cn[nH]c12` (stereo partly drawn) [Example 303, (1S,2S)-N-(6-(5-chloro-6-fluoro-7-(methylsulfinyl)-1H-indazol-4-yl)imidazo[1,2-a]pyridin-2-yl)-2-fluorocyclopropane-1-carboxamide] was < 100 nM. The value for `CCc1c(F)c(C(F)(F)F)c2[nH]ncc2c1-c1ccn2nc(NC(=O)[C@@H]3C[C@@H]3F)cc2c1` [Example 585, (1S,2S)-N-(5-(5-ethyl-6-fluoro-7-(trifluoromethyl)-1H-indazol-4-yl)pyrazolo[1,5-a]pyridin-2-yl)-2-fluorocyclopropane-1-carboxamide] was < 100 nM. `C=Cc1n[nH]c2cc(F)c(C)c(-c3ccc4nc(NC(=O)[C@@H]5C[C@@H]5F)sc4c3)c12` [Example 52, (1S,2S)-2-fluoro-N-(6-(6-fluoro-5-methyl-3-vinyl-1H-indazol-4-yl)benzo[d]thiazol-2-yl)cyclopropane-1-carboxamide]: the IC50 is > 1000 nM.

For the compound `O=C(Nc1nc2ccc(-c3c(Cl)ccc4[nH]ncc34)cc2s1)C1CC1` [Example 16, N-(6-(5-chloro-1H-indazol-4-yl)benzo[d]thiazol-2-yl)cyclopropanecarboxamide], the IC50 lay in the range of 101 to 500 nM. The value for `CSc1c(F)cc2[nH]ncc2c1-c1cc2sc(NC(=O)[C@@H]3C[C@@H]3F)nc2cn1` [Example 219, (1S,2S)-2-fluoro-N-(6-(6-fluoro-5-(methylthio)-1H-indazol-4-yl)thiazolo[4,5-c]pyridin-2-yl)cyclopropane-1-carboxamide] was 101 to 500 nM; that for `CN(C)c1c(F)c(Cl)c(-c2ccc3nc(NC(=O)NC4CC4)cn3c2)c2cn[nH]c12` [Example 387, 1-(6-(5-chloro-7-(dimethylamino)-6-fluoro-1H-indazol-4-yl)imidazo[1,2-a]pyridin-2-yl)-3-cyclopropylurea] was < 100 nM; that for `O=C(Nc1cn2cc(-c3c(Cl)c(F)c(Br)c4[nH]ncc34)ccc2n1)[C@@H]1C[C@@H]1F` [Example 261, (1S,2S)-N-(6-(7-bromo-5-chloro-6-fluoro-1H-indazol-4-yl)imidazo[1,2-a]pyridin-2-yl)-2-fluorocyclopropane-1-carboxamide] was < 100 nM. In the case of `Cc1c(F)cc2[nH]ncc2c1-c1ccc2nc(NC(=O)C3CC3)cn2c1` [Example 245, N-(6-(6-fluoro-5-methyl-1H-indazol-4-yl)imidazo[1,2-a]pyridin-2-yl)cyclopropanecarboxamide], the half-maximal inhibitory concentration (IC50) was < 100 nM.

Regarding `CC(C)Nc1c(F)c(Cl)c(-c2cc(N)c3nc(NC(=O)[C@@H]4C[C@@H]4F)cn3c2)c2cn[nH]c12` [Example 403, (1S,2S)-N-(8-amino-6-(5-chloro-6-fluoro-7-(isopropylamino)-1H-indazol-4-yl)imidazo[1,2-a]pyridin-2-yl)-2-fluorocyclopropane-1-carboxamide. 1 formic acid], the IC50 was > 1000 nM.

Take `O=C(Nc1nc2ccc(-c3c(Cl)c(F)c(F)c4[nH]ncc34)cc2s1)[C@@H]1C[C@@H]1F` [Example 126, (1S,2S)-N-(6-(5-chloro-6,7-difluoro-1H-indazol-4-yl)benzo[d]thiazol-2-yl)-2-fluorocyclopropane-1-carboxamide]: the IC50 is < 100 nM. As for `O=C(Nc1nc2ccc(-c3cc(Cl)cc4[nH]ncc34)cc2s1)C1CC1` [Example 20, N-(6-(6-chloro-1H-indazol-4-yl)benzo[d]thiazol-2-yl)cyclopropanecarboxamide], the IC50 was > 1000 nM.
